In one experiment the target is T1, human GLP-1 receptor (Homo sapiens, UniProt P43220).
T1 construct: expressed in transfected cells; membrane preparation
Kind of experiment: GLP-1 receptor SPA binding assay. The following applies: 0% HSA; BHK cell membranes; displacement of [125I]-GLP-1(7-36)-NH2; read-out: Human GLP1 R SPA binding 0% HSA IC50. An excerpt:
(§1) In one embodiment affinity refers to in vitro binding affinity, i.e. performance in a GLP-1 receptor binding affinity assay and in a glucagon receptor binding affinity assay, more particularly to the capability of binding the human GLP-1 receptor and to the human glucagon receptor. The binding affinity of the human GLP-1 receptor may be measured in a binding assay, e.g. in a stably transfected BHK cell line that expresses the human GLP-1 receptor. Radioactively labelled GLP-1 binds to the receptor and may be displaced competitvely by a compound. Binding of radioligand may be determined in the presence of scintillation proximity assay (SPA) beads which bind to cell membranes and when radioactivity is close to the bead it produces light which is measured and is a measure of the in vitro binding affinity. […] The binding affinity of the human glucagon receptor may be measured in a binding affinity assay, e.g. in a stably transfected BHK cell line that expresses the human glucagon receptor. […] Binding of radioligand may be determined in the presence of scintillation proximity assay (SPA) beads which bind to cell membranes and when radioactivity is close to the bead it produces light which is measured and is a measure of the in vitro binding affinity. […] The protein concentration was subsequently determined, and the membranes were stored at −80° C. until use. […]

A further experiment has as its target T2, human glucagon receptor (Homo sapiens, UniProt P47871).
T2 construct: expressed in transfected cells; membrane preparation
In words: Glucagon receptor SPA binding assay. The following applies: 0% HSA; BHK cell membranes; displacement of [125I]-glucagon; read-out: Human GCG R SPA binding 0% HSA IC50.
Text: as §1

A short description of experiment [1]: Plasma alanine transferase levels in diet-induced NASH mice. Type of experiment: in vivo, male C57BL/6 mice. As to conditions: after 56 days of treatment, SC once daily; FIG. 3. The procedure: (§2) At 5 weeks of age, male C57BL/6 mice were purchased from JanVier, France. During the acclimatization and diet-induction period, the mice were group housed ten per cage in custom-made cabinets under a 12:12 light dark cycle (lights on from 3 AM-3 PM) at controlled temperature conditions (22±1° C.; 50±10% relative humidity). Throughout the diet-induction the mice had ad libitum access to AMLN diet (D09100301, Research Diet, USA) (40% fat (18% trans-fat), 40% carbohydrates (20% fructose) and 2% cholesterol) or regular rodent chow (chow vehicle group) (Altromin 1324, Brogaarden, Denmark) and tap water. Throughout the study period the mice had ad libitum access to AMLN diet, except the weight-matched group which was food restricted to lower the body weight to the same level as for animals receiving compound A or compound B, or regular rodent chow (chow vehicle group) and tap water. […]
(§3) During the diet-induction period, body weight was intermittently monitored. […]
Animal experiments were conducted as described in the section “General Methods of Animal Experiments”. […] All parameters are measured in single determinations using autoanalyzer Cobas C-111 with commercial kit (Roche Diagnostics, Germany) according to the manufacturer's instructions. Data are expressed as mean±SEM (NASH groups n=11-12, Chow Vehicle group n=10). […]

Experiment [2] can be described thus: Hepatic terminal triglycerides and cholesterol content in diet-induced NASH mice. In kind it is in vivo, male C57BL/6 mice. As to conditions: after 56 days of treatment; FIG. 5A. How it is done: as §2, §3
Animal experiments were conducted as described in the section “General Methods of Animal Experiments”. Triglycerides and total cholesterol content in liver homogenates were measured in single determinations using autoanalyzer Cobas C-111 with commercial kit (Roche Diagnostics, Germany) according to manufacturer's instructions. […]

Numbered stars: 1 amine (or outer) side, 2 acyl side, 3 side chain; on linkers, the order of the positions; unused ones are H or OH. Square brackets hold non-standard residues; d marks the D form. Side chains are listed from the residue outwards. Peptide text beside a SMILES is read from it. * marks the point of attachment. C18 diacid = O=C(O)CCCCCCCCCCCCCCCCC(=O)*; γGlu = O=C(O)[C@H](CCC(=O)[*:2])N[*:1]; Ac4c = NC1(C(=O)O)CCC1; AEEA = NCCOCCOCC(=O)O; Aib = CC(C)(N)C(=O)O

T2 sequence (P47871 26-477): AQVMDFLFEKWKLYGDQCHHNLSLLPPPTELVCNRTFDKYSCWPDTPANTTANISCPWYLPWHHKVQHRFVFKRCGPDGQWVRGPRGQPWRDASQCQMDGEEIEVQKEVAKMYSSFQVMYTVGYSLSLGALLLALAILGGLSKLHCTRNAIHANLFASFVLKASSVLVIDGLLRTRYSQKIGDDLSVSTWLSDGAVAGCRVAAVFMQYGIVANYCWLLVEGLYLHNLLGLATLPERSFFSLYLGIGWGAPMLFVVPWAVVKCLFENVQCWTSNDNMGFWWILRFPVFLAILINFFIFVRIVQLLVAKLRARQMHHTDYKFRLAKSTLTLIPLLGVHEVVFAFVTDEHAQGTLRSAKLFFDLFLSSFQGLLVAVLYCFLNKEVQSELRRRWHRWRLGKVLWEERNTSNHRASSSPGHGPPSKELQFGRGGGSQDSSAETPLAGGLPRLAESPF
T1 sequence (P43220 24-463): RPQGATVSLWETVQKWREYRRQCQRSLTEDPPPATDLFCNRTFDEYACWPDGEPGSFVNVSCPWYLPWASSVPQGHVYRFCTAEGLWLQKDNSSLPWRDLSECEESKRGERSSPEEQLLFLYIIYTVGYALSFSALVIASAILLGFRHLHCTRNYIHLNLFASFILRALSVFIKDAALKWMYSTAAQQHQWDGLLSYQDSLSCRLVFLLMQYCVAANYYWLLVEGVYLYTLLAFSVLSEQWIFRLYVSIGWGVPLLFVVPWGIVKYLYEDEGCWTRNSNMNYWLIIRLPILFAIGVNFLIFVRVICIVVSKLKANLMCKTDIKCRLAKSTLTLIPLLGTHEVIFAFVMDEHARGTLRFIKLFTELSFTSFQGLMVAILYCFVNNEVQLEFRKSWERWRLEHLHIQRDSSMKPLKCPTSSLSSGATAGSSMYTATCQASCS

As for `CC(C)C[C@H](NC(=O)[C@H](Cc1ccc(O)cc1)NC(=O)[C@H](CCCCN)NC(=O)[C@H](CO)NC(=O)[C@H](CC(C)C)NC(=O)[C@H](CC(=O)O)NC(=O)[C@H](CO)NC(=O)[C@@H](NC(=O)[C@H](Cc1ccccc1)NC(=O)[C@@H](NC(=O)CNC(=O)[C@H](CCC(N)=O)NC(=O)C(C)(C)NC(=O)[C@@H](N)Cc1c[nH]cn1)[C@@H](C)O)[C@@H](C)O)C(=O)N[C@@H](CCC(=O)O)C(=O)N[C@@H](CO)C(=O)N[C@@H](CCCCN)C(=O)N[C@@H](CCCNC(=N)N)C(=O)N[C@@H](C)C(=O)N[C@@H](CCCNC(=N)N)C(=O)N[C@@H](CCC(=O)O)C(=O)N[C@@H](Cc1ccccc1)C(=O)N[C@H](C(=O)N[C@@H](CCC(N)=O)C(=O)N[C@@H](Cc1c[nH]c2ccccc12)C(=O)N[C@@H](CC(C)C)C(=O)N[C@@H](CC(C)C)C(=O)N[C@@H](CCCCNC(=O)CC[C@H](NC(=O)CC[C@H](NC(=O)[C@H](CO)NC(=O)[C@H](CCC(=O)O)NC(=O)[C@H](CO)NC(=O)CC[C@H](NC(=O)CC[C@H](NC(=O)CCCCCCCCCCCCCCCCC(=O)O)C(=O)O)C(=O)O)C(=O)O)C(=O)O)C(=O)N[C@H](C(N)=O)[C@@H](C)O)C(C)C` [Compound A, N^ε28-[(4S)-4-carboxy-4-[[(4S)-4-carboxy-4-[[(2S)-2-[[(2S)-4-carboxy-2-[[(2S)-2-[[(4S)-4-carboxy-4-[[(4S)-4-carboxy-4-(17-carboxyheptadecanoylamino)butanoyl]amino]butanoyl]amino]-3-hydroxypropanoyl]amino]butanoyl]amino]-3-hydroxypropanoyl]amino]butanoyl]amino]butanoyl]-[Aib2,Leu10,Glu15,Lys17,Arg20,Glu21,Leu27,Lys28]-Glucagon amide] (H-H[Aib]QGTFTSDLSKYLESKRAREFVQWLLK([γGlu-γGlu-Ser-Glu-Ser-γGlu-γGlu-C18 diacid])T-NH2), the IC50 amounted to 0.3 nM at human GLP-1 receptor and 1.4 nM on human glucagon receptor. Further, the “effect on plasma ALT levels compared with the weight-matched (WM) group” value in experiment [1] was “the observed effect is bigger”. Also, the “effect on liver triglyceride levels compared with the weight-matched (WM) group” value in experiment [2] is on record as “the observed effect is bigger”.
As to `CC(C)C[C@H](NC(=O)[C@H](CC(=O)O)NC(=O)[C@H](CC(C)C)NC(=O)[C@H](Cc1ccc(O)cc1)NC(=O)[C@H](CCCCN)NC(=O)[C@H](CO)NC(=O)[C@H](CC(C)C)NC(=O)[C@H](CC(=O)O)NC(=O)[C@H](CO)NC(=O)[C@@H](NC(=O)[C@H](Cc1ccccc1)NC(=O)[C@@H](NC(=O)CNC(=O)[C@H](CCC(N)=O)NC(=O)C1(NC(=O)[C@@H](N)Cc2c[nH]cn2)CCC1)[C@@H](C)O)[C@@H](C)O)C(=O)N[C@@H](CCCNC(=N)N)C(=O)N[C@@H](CCCNC(=N)N)C(=O)N[C@@H](C)C(=O)N[C@@H](CCCNC(=N)N)C(=O)N[C@@H](CC(=O)O)C(=O)N[C@@H](Cc1ccccc1)C(=O)N[C@H](C(=O)N[C@@H](CCC(N)=O)C(=O)N[C@@H](Cc1c[nH]c2ccccc12)C(=O)N[C@@H](CC(C)C)C(=O)N[C@@H](CC(C)C)C(=O)N[C@@H](CCCCNC(=O)CC[C@H](NC(=O)CC[C@H](NC(=O)COCCOCCNC(=O)COCCOCCNC(=O)CC[C@H](NC(=O)CC[C@H](NC(=O)CCCCCCCCCCCCCCCCC(=O)O)C(=O)O)C(=O)O)C(=O)O)C(=O)O)C(=O)N[C@H](C(N)=O)[C@@H](C)O)C(C)C` [Compound B, N^ε28-[(4S)-4-carboxy-4-[[(4S)-4-carboxy-4-[[2-[2-[2-[[2-[2-[2-[[(4S)-4-carboxy-4-[[(4S)-4-carboxy-4-(17-carboxyheptadecanoylamino)butanoyl]amino]butanoyl]amino]ethoxy]ethoxy]acetyl]amino]ethoxy]ethoxy]acetyl]amino]butanoyl]amino]butanoyl]-[Acb2,Leu10,Leu16,Arg20,Leu27,Lys28]-Glucagon amide] (H-H[Ac4c]QGTFTSDLSKYLDLRRARDFVQWLLK([γGlu-γGlu-AEEA-AEEA-γGlu-γGlu-C18 diacid])T-NH2), the IC50 stood at 1.6 nM at human GLP-1 receptor and 0.8 nM on human glucagon receptor. The “effect on plasma ALT levels compared with the weight-matched (WM) group” value in experiment [1] was “the observed effect is bigger”. Moreover, in experiment [2], the “effect on liver triglyceride levels compared with the weight-matched (WM) group” value is “the observed effect is bigger”.

As usually defined, the IC50 is the point on the concentration scale where inhibition reaches its midpoint.

For the origin of these results see US20200268835A1, “Compounds For Use in NASH” (Novo Nordisk A/S, priority 2019, published 2020).
